# According to publication PMC4992173, “Divergent synthesis and identification of the cellular targets of deoxyelephantopins” (Nature Communications, 2016):
# Biological target: T1, PPARγ (Homo sapiens, UniProt P37231)
# T1 sequence (P37231 1-505): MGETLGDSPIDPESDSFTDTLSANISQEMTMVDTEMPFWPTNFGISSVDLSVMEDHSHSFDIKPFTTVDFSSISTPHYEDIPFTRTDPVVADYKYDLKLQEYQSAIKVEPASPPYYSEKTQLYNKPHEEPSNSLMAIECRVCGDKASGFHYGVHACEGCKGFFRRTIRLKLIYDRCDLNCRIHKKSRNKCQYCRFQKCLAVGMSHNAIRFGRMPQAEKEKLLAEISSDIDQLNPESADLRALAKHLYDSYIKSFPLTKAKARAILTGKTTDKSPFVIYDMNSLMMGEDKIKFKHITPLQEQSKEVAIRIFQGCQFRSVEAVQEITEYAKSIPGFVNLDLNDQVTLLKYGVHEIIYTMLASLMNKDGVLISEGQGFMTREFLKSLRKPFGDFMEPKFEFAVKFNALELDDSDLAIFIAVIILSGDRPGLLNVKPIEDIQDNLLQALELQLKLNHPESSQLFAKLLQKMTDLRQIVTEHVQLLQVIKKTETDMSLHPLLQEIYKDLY
# Experiment: PPARγ enrichment from MCF7 lysates spiked with recombinant PPARγ (LC-MS/MS LFQ)
# Type: binding
# Conditions: for LFQ intensity (PPARG enriched by probe): MCF7 lysates spiked with recombinant PPARγ (30 nM), n=3
# Description: On the basis of the reported interaction between deoxyelephantopin and PPARγ and because MCF7 cells are known to express very low levels of this protein, we investigated in a separate experiment whether deoxyelephantopin indeed covalently binds PPARγ. The recombinant transcription factor was spiked into MCF7 lysates to 30 nM final concentration and successfully enriched by the methacrylate ester probe 24c, as evidenced from LC–MS/MS-based label-free quantification (LFQ)[48]. […] To investigate whether DEP is also capable of binding to endogenous PPARγ directly in living cells, we performed a targeted competitive proteomics experiment in Caco-2, a colon cancer cell line known to express larger amounts of PPARγ[49]. The cells were treated in situ with dimethyl sulfoxide (DMSO) or 20 μM deoxyelephantopin, lysed and treated with 24c. Gratifyingly, endogenous PPARγ was successfully enriched and quantified from the DMSO-treated Caco-2 cells, whereas DEP pretreatment efficiently competed PPARγ enrichment (>95%; Fig. 7a). In yet another control experiment, we expressed hPPARγ in HeLa cells and successfully conducted a gel-based competition experiment once again using DEP as an in situ competitor and 24c-Cy3 as reporter probe (Supplementary Fig. 14).
# Supplementary figure 13: LFQ quantification of PPARγ enrichment from supplemented MCF7 lysates using 10 µM of 23c or 24c as enrichment probes (n = 3). […]
# was processed with MaxQuant (see below).
# In situ global proteomics profiling using LC-MS/MS. Caco- ’ cells/mL) in a 6-well plate, allowed to grow to confluence and to differentiate for 28 days. The wells were washed one time with PBS and treated with either DMSO, 10 µM rosiglitazone, 50 µM T0070907 or 20 µM DEP for 24 hours. Cells were washed two times with PBS and lysates were prepared. Samples (30 µg) were denatured with 6 M urea in 50 mM NH4HCO3, reduced […]
# dark. Samples were diluted to 2 M urea with 50 mM NH4HCO3, and digested with trypsin ([…] for 12 hours at 37 °C. Samples were acidified to a final concentration of 5% acetic acid, desalted over a self-packed C18 spin column and dried. Samples were analyzed by LC-MS/MS (see below) and the MS data was processed with […]
# ARγ nrichment for mass spectrometry. MCF7 lysate (2 mg/ml, 0.5 mL) supplemented µ γ was treated with either 23c or 24c (10 µM, 50x stock in DMSO) for one hour at r.t., followed by click chemistry (see above). […] Samples were analyzed by LC-MS/MS (see below) and the MS data was processed with MaxQuant (see below).
# LC-MS/MS analysis. Peptides were resuspended in water with 0.1% formic acid (FA) and analyzed using Proxeon EASY-nLC 1000 nano-UHPLC coupled to QExactive Plus Quadrupole-Orbitrap mass spectrometer (Thermo Scientific). […]
Structure (SMILES),"PPARγ enrichment compared with probe 24c (MCF7 lysates spiked with PPARγ, 10 µM probe)",LFQ intensity (PPARG enriched by probe) (10 µM probe),"Ratio 24c/23c (LFQ intensity of PPARG) (MCF7 lysates spiked with PPARγ, 10 µM probes)"
C#CCC[C@H](O)[C@H]1C(=C)C(=O)O[C@@H]1c1ccccc1 [23c],comparable LFQ value,5.49E+09,–
C#CCC[C@H](OC(=O)C(=C)C)[C@H]1C(=C)C(=O)O[C@@H]1c1ccccc1 [24c],–,5.15E+09,0.94
